In PMC10221074, “Functional Profiling of the A-Family of Venom Peptides from the Wolf Spider Lycosa shansia” (Toxins, 2023):

Legend:
[1] = test system: Pseudomonas aeruginosa DSM 50071; experiment: Antibacterial growth assay (OD600); settings: OD600, medium = 100, MH II broth, 37 °C, peptide 200 µM mixed 50 µL + 50 µL with bacteria, Figure 7: 48 h; for Bacterial growth relative to medium, P. aeruginosa (50071), replicate 1: replicate column 1; for Bacterial growth relative to medium, P. aeruginosa (50071), replicate 2: replicate column 2; for Bacterial growth relative to medium, P. aeruginosa (50071), replicate 3: replicate column 3
[2] = test system: Micrococcus luteus DSM 20030; experiment: Antibacterial growth assay (OD600); settings: for Bacterial growth relative to medium, M. luteus, replicate 1 / Bacterial growth relative to medium, M. luteus, replicate 2 / Bacterial growth relative to medium, M. luteus, replicate 3: OD600, medium = 100, MH II broth, 37 °C, peptide 200 µM mixed 50 µL + 50 µL with bacteria, Figure 7: 48 h; for Bacterial growth relative to medium, M. luteus, replicate 1: replicate column 1; for Bacterial growth relative to medium, M. luteus, replicate 2: replicate column 2; for Bacterial growth relative to medium, M. luteus, replicate 3: replicate column 3; for Antibacterial activity (in words): M. luteus DSM 20030, growth after 48 h
Method: (§1) Cryo-conserved cultures of selected bacterial strains (Table 4) were transferred to Tryptic Soy Agar (TSA) plates (Carl Roth) with a sterile inoculation loop, sealed with Parafilm (BEMIS, Neenah, WI, USA), and incubated for 1–2 days at 37 °C depending on growth. Single colonies were picked and transferred into 2–3 mL of the Mueller–Hinton II (MH II) broth (BD, Heidelberg, Germany). The bacteria were cultivated overnight, subcultured on fresh medium and grown for 3–4 h before testing at 37 °C, with shaking at 180 rpm. We measured the optical density at 600 nm (OD600) of 1 mL of the bacterial suspensions in polystyrene cuvettes (SARSTED, Nümbrecht, Germany) using an Ultrospec 10 spectrophotometer (Biochrome, Cambridge, UK). We then diluted them with the MH II medium to the preferred OD600 (Table 2). The peptides were dissolved in DMSO to generate 10 mmol/L stocks and diluted with the MH II medium to 200 µM before the assay. We used 10 µg/mL (~40 µg/mL for S. epidermidis) gentamicin and colistin (Sigma-Aldrich, Taufkirchen, Germany), DMSO and the medium only as controls. The bacteria were transferred to 96-multiwell plates with a final volume of 100 µL per well (50 µL bacterial suspension, and 50 µL test peptide). The OD600 was measured at 0, 24 and 48 h using a BioTek Eon microplate reader followed by analysis with Gen5 v2.09.

A/Hessen/1/2003 (H3N2) = assay type: cell-based, influenza virus
[3] = test system: Listeria monocytogenes DSM 20600; experiment: Antibacterial growth assay (OD600); settings: for Bacterial growth relative to medium, L. monocytogenes, replicate 1 / Bacterial growth relative to medium, L. monocytogenes, replicate 2 / Bacterial growth relative to medium, L. monocytogenes, replicate 3: OD600, medium = 100, MH II broth, 37 °C, peptide 200 µM mixed 50 µL + 50 µL with bacteria, Figure 7: 48 h; for Bacterial growth relative to medium, L. monocytogenes, replicate 1: replicate column 1; for Bacterial growth relative to medium, L. monocytogenes, replicate 2: replicate column 2; for Bacterial growth relative to medium, L. monocytogenes, replicate 3: replicate column 3; for Antibacterial activity (in words): L. monocytogenes DSM 20600, growth after 48 h
[4] = test system: Escherichia coli BL21(DE3); experiment: Antibacterial growth assay (OD600); settings: for Bacterial growth relative to medium, E. coli, replicate 1 / Bacterial growth relative to medium, E. coli, replicate 2 / Bacterial growth relative to medium, E. coli, replicate 3: OD600, medium = 100, MH II broth, 37 °C, peptide 200 µM mixed 50 µL + 50 µL with bacteria, Figure 7: 48 h; for Bacterial growth relative to medium, E. coli, replicate 1: replicate column 1; for Bacterial growth relative to medium, E. coli, replicate 2: replicate column 2; for Bacterial growth relative to medium, E. coli, replicate 3: replicate column 3
A/Hamburg/05/2009 (H1N1) = assay type: cell-based, influenza virus
[5] = test system: Staphylococcus epidermidis DSM 28319; experiment: Antibacterial growth assay (OD600); settings: for Bacterial growth relative to medium, S. epidermidis, replicate 1 / Bacterial growth relative to medium, S. epidermidis, replicate 2 / Bacterial growth relative to medium, S. epidermidis, replicate 3: OD600, medium = 100, MH II broth, 37 °C, peptide 200 µM mixed 50 µL + 50 µL with bacteria, Figure 7: 48 h; for Bacterial growth relative to medium, S. epidermidis, replicate 1: replicate column 1; for Bacterial growth relative to medium, S. epidermidis, replicate 2: replicate column 2; for Bacterial growth relative to medium, S. epidermidis, replicate 3: replicate column 3
Method: as §1

[6] = test system: Staphylococcus aureus DSM 2569; experiment: Antibacterial growth assay (OD600); settings: for Bacterial growth relative to medium, S. aureus, replicate 1 / Bacterial growth relative to medium, S. aureus, replicate 2 / Bacterial growth relative to medium, S. aureus, replicate 3: OD600, medium = 100, MH II broth, 37 °C, peptide 200 µM mixed 50 µL + 50 µL with bacteria, Figure 7: 48 h; for Bacterial growth relative to medium, S. aureus, replicate 1: replicate column 1; for Bacterial growth relative to medium, S. aureus, replicate 2: replicate column 2; for Bacterial growth relative to medium, S. aureus, replicate 3: replicate column 3
Method: as §1

[7] = test system: B/Malaysia/2506/2004 (B-Mal); assay type: cell-based, influenza virus
[8] = test system: Pseudomonas aeruginosa DSM 1117; experiment: Antibacterial growth assay (OD600); settings: for Bacterial growth relative to medium, P. aeruginosa (1117), replicate 1 / Bacterial growth relative to medium, P. aeruginosa (1117), replicate 2 / Bacterial growth relative to medium, P. aeruginosa (1117), replicate 3: OD600, medium = 100, MH II broth, 37 °C, peptide 200 µM mixed 50 µL + 50 µL with bacteria, Figure 7: 48 h; for Bacterial growth relative to medium, P. aeruginosa (1117), replicate 1: replicate column 1; for Bacterial growth relative to medium, P. aeruginosa (1117), replicate 2: replicate column 2; for Bacterial growth relative to medium, P. aeruginosa (1117), replicate 3: replicate column 3
[9] = test system: panel of seven bacterial strains; experiment: Antibacterial growth assay (OD600), statements on the whole panel; assay type: cell-based; settings: growth after 48 h

Sequence	Bacterial growth relative to medium, P. aeruginosa (50071), replicate 1 [1]	Bacterial growth relative to medium, P. aeruginosa (50071), replicate 2 [1]	Bacterial growth relative to medium, P. aeruginosa (50071), replicate 3 [1]	Bacterial growth relative to medium, M. luteus, replicate 1 [2]	Bacterial growth relative to medium, M. luteus, replicate 2 [2]	Bacterial growth relative to medium, M. luteus, replicate 3 [2]	Viability of infected cells relative to aprotinin, Replicate 1 (A/Hessen/1/2003 (H3N2))	Viability of infected cells relative to aprotinin, Replicate 2 (A/Hessen/1/2003 (H3N2))	Viability of infected cells relative to aprotinin, Replicate 3 (A/Hessen/1/2003 (H3N2))	Bacterial growth relative to medium, L. monocytogenes, replicate 1 [3]	Bacterial growth relative to medium, L. monocytogenes, replicate 2 [3]	Bacterial growth relative to medium, L. monocytogenes, replicate 3 [3]	Bacterial growth relative to medium, E. coli, replicate 1 [4]	Bacterial growth relative to medium, E. coli, replicate 2 [4]	Bacterial growth relative to medium, E. coli, replicate 3 [4]	Viability of infected cells relative to aprotinin, Replicate 1 (A/Hamburg/05/2009 (H1N1))	Viability of infected cells relative to aprotinin, Replicate 2 (A/Hamburg/05/2009 (H1N1))	Viability of infected cells relative to aprotinin, Replicate 3 (A/Hamburg/05/2009 (H1N1))	Bacterial growth relative to medium, S. epidermidis, replicate 1 [5]	Bacterial growth relative to medium, S. epidermidis, replicate 2 [5]	other results
SLFGLLDLVKSKVGQTGLL [LS-AMP-A1]	100.105	111.979	89.7927	73.9935	135.023	50.2152	0.185	0.1781	0.1313	93.4804	90.3626	102.296	153.553	169.757	114.343	0.03121	0.03837	0.04316	132.924	152.819	Bacterial growth relative to medium, S. epidermidis, replicate 3 [5]: 103.22; Bacterial growth relative to medium, S. aureus, replicate 1 [6]: 106.033; Bacterial growth relative to medium, S. aureus, replicate 2 [6]: 110.791; Bacterial growth relative to medium, S. aureus, replicate 3 [6]: 108.193; Viability of infected cells relative to aprotinin, Replicate 1 [7]: 0.04827; Viability of infected cells relative to aprotinin, Replicate 2 [7]: 0.03878; Viability of infected cells relative to aprotinin, Replicate 3 [7]: 0.05872; Bacterial growth relative to medium, P. aeruginosa (1117), replicate 1 [8]: 79.0357; Bacterial growth relative to medium, P. aeruginosa (1117), replicate 2 [8]: 70.5187; Bacterial growth relative to medium, P. aeruginosa (1117), replicate 3 [8]: 73.1051; Antibacterial activity over the panel (in words) [9]: limited activity
SLLGLLDVVKNKVGQI [LS-AMP-A5]	93.2773	109.79	85.8852	73.1884	97.1848	36.1549	0.17	0.06482	0.08289	122.608	80.283	61.98	99.4801	69.6408	26.4544	0.0613	0.03494	0.03984	62.884	53.6633	Antibacterial activity (in words) [2]: no activity; Viability of infected cells relative to aprotinin, Replicate 4 (A/Hessen/1/2003 (H3N2); […], replicate 4 (additional internal control)): 0.1822; Viability of infected cells relative to aprotinin, Replicate 5 (A/Hessen/1/2003 (H3N2); […], replicate 5 (additional internal control)): 0.1791; Viability of infected cells relative to aprotinin, Replicate 6 (A/Hessen/1/2003 (H3N2); […], replicate 6 (additional internal control)): 0.1761; Bacterial growth relative to medium, S. epidermidis, replicate 3 [5]: 71.8202; Bacterial growth relative to medium, S. aureus, replicate 1 [6]: 55.1989; Bacterial growth relative to medium, S. aureus, replicate 2 [6]: 62.917; Bacterial growth relative to medium, S. aureus, replicate 3 [6]: 88.627; Viability of infected cells relative to aprotinin, Replicate 1 [7]: 0.1132; Viability of infected cells relative to aprotinin, Replicate 2 [7]: 0.06127; Viability of infected cells relative to aprotinin, Replicate 3 [7]: 0.06301; Bacterial growth relative to medium, P. aeruginosa (1117), replicate 1 [8]: 63.186; Bacterial growth relative to medium, P. aeruginosa (1117), replicate 2 [8]: 51.5489; Bacterial growth relative to medium, P. aeruginosa (1117), replicate 3 [8]: 62.0721; Antibacterial activity over the panel (in words) [9]: inhibited the growth of most of the bacteria except two
SLLGLLDVVKNKVGQIG [LS-AMP-A4]	97.6103	110.944	86.4168	48.8727	93.5811	47.3458	0.1134	0.06953	0.04762	47.529	64.3679	81.7792	63.5471	64.6002	38.7121	0.03111	0.02825	0.01475	50.7409	49.8658	Antibacterial activity (in words) [2]: able to decrease the growth; Antibacterial activity (in words) [3]: able to decrease the growth; Antibacterial activity (in words) ([4]; E. coli BL21(DE3), growth after 48 h): able to decrease the growth; Bacterial growth relative to medium, S. epidermidis, replicate 3 [5]: 70.1306; Antibacterial activity (in words) ([5]; S. epidermidis DSM 28319, growth after 48 h): able to decrease the growth; Bacterial growth relative to medium, S. aureus, replicate 1 [6]: 64.8588; Bacterial growth relative to medium, S. aureus, replicate 2 [6]: 69.2609; Bacterial growth relative to medium, S. aureus, replicate 3 [6]: 80.5088; Antibacterial activity (in words) ([6]; S. aureus DSM 2569, growth after 48 h): able to decrease the growth; Viability of infected cells relative to aprotinin, Replicate 1 [7]: 0.05108; Viability of infected cells relative to aprotinin, Replicate 2 [7]: 0.07356; Viability of infected cells relative to aprotinin, Replicate 3 [7]: 0.0764; Bacterial growth relative to medium, P. aeruginosa (1117), replicate 1 [8]: 67.901; Bacterial growth relative to medium, P. aeruginosa (1117), replicate 2 [8]: 83.7452; Bacterial growth relative to medium, P. aeruginosa (1117), replicate 3 [8]: 58.9242; Antibacterial activity over the panel (in words) [9]: inhibited the growth of most of the bacteria except two
SLLGLLDVVKNKVGQIGLL [LS-AMP-A3]	100.315	112.866	88.8092	106.28	132.545	67.7188	0.1081	0.01008	0.02318	59.9369	117.418	68.2929	114.847	118.887	89.3889	0.0465	0.03476	0.04494	125.081	166.552	Antibacterial activity (in words) [3]: less effective; Bacterial growth relative to medium, S. epidermidis, replicate 3 [5]: 95.4096; Bacterial growth relative to medium, S. aureus, replicate 1 [6]: 77.3106; Bacterial growth relative to medium, S. aureus, replicate 2 [6]: 83.4859; Bacterial growth relative to medium, S. aureus, replicate 3 [6]: 97.1568; Viability of infected cells relative to aprotinin, Replicate 1 [7]: 0.05676; Viability of infected cells relative to aprotinin, Replicate 2 [7]: 0.05168; Viability of infected cells relative to aprotinin, Replicate 3 [7]: 0.08362; Bacterial growth relative to medium, P. aeruginosa (1117), replicate 1 [8]: 63.3724; Bacterial growth relative to medium, P. aeruginosa (1117), replicate 2 [8]: 74.5214; Bacterial growth relative to medium, P. aeruginosa (1117), replicate 3 [8]: 66.198; Antibacterial activity (in words) ([8]; P. aeruginosa DSM 1117, growth after 48 h): less effective; Antibacterial activity over the panel (in words) [9]: limited activity
